Laboratory results reported in ChEMBL document CHEMBL1157967, “Triterpenoid saponins from the fruits of Caryocar villosum” (J Nat Prod, 2006).
Active and inactive are the calls of the source.

Columns and labels:
Assay type in all cases: functional, organism-based
Escherichia coli = test: Antibacterial activity against Escherichia coli at 50 ug by agar diffusion method
Staphylococcus aureus = test: Antibacterial activity against Staphylococcus aureus at 50 ug by agar diffusion method
Pseudomonas aeruginosa = test: Antibacterial activity against Pseudomonas aeruginosa at 50 ug by agar diffusion method
[1] = system: Mycolicibacterium smegmatis; test: Antibacterial activity against Mycobacterium smegmatis at 50 ug by agar diffusion method
Enterococcus faecalis = test: Antibacterial activity against Enterococcus faecalis at 50 ug by agar diffusion method

Measured: Activity

CC1(C)CC[C@]2(C(=O)O[C@@H]3O[C@H](CO)[C@@H](O)[C@H](O)[C@H]3O)CC[C@]3(C)C(=CC[C@@H]4[C@@]5(C)CC[C@H](O[C@@H]6O[C@H](CO)[C@H](O)[C@H](O)[C@H]6O[C@@H]6O[C@H](CO)[C@@H](O)[C@H](O)[C@H]6O)[C@@](C)(CO)[C@@H]5CC[C@]43C)[C@@H]2C1
inactive: Escherichia coli | Staphylococcus aureus | Pseudomonas aeruginosa | [1] | Enterococcus faecalis

CC1(C)CC[C@]2(C(=O)O[C@@H]3O[C@H](CO)[C@@H](O)[C@H](O)[C@H]3O)CC[C@]3(C)C(=CC[C@@H]4[C@@]5(C)C[C@H](O)[C@H](O[C@@H]6O[C@H](C(=O)O)[C@@H](O)[C@H](O[C@@H]7O[C@H](CO)[C@H](O)[C@H](O)[C@H]7O)[C@H]6O)C(C)(C)[C@@H]5CC[C@]43C)[C@@H]2C1
inactive: Escherichia coli | Staphylococcus aureus | Pseudomonas aeruginosa | [1] | Enterococcus faecalis

CC1(C)CC[C@]2(C(=O)O)CC[C@]3(C)C(=CC[C@@H]4[C@@]5(C)CC[C@H](O[C@@H]6O[C@H](CO)[C@@H](O)[C@H](O[C@@H]7O[C@H](CO)[C@H](O)[C@H](O)[C@H]7O)[C@H]6O)[C@@](C)(CO)[C@@H]5CC[C@]43C)[C@@H]2C1
inactive: Escherichia coli | Staphylococcus aureus | Pseudomonas aeruginosa | [1] | Enterococcus faecalis

CC1(C)CC[C@]2(C(=O)O)CC[C@]3(C)C(=CC[C@@H]4[C@@]5(C)C[C@H](O)[C@H](O[C@@H]6O[C@H](CO)[C@@H](O)[C@H](O[C@@H]7O[C@H](CO)[C@H](O)[C@H](O)[C@H]7O)[C@H]6O)[C@@](C)(CO)[C@@H]5CC[C@]43C)[C@@H]2C1
inactive: Escherichia coli | Staphylococcus aureus | Pseudomonas aeruginosa | [1] | Enterococcus faecalis

CC1(C)CC[C@]2(C(=O)O[C@@H]3O[C@H](CO)[C@@H](O)[C@H](O)[C@H]3O)CC[C@]3(C)C(=CC[C@@H]4[C@@]5(C)C[C@H](O)[C@H](O[C@@H]6O[C@H](C(=O)O)[C@@H](O)[C@H](O[C@@H]7O[C@H](CO)[C@H](O[C@@H]8O[C@H](CO)[C@H](O)[C@H](O[C@@H]9O[C@H](CO)[C@H](O)[C@H](O[C@@H]%10OC[C@@H](O)[C@H](O)[C@H]%10O)[C@H]9O)[C@H]8O)[C@H](O)[C@H]7O)[C@H]6O)C(C)(C)[C@@H]5CC[C@]43C)[C@@H]2C1
inactive: Escherichia coli | Staphylococcus aureus | Pseudomonas aeruginosa | [1] | Enterococcus faecalis
